Results on seven compounds are retold here after the Kinase Knowledgebase extract (Sharma et al. 2016).

The target of the assay is CDK2 (human) (UniProt P24941). The assay is described as follows: Cell-Based Assay.

The term IC50 denotes the concentration at which inhibition is half-maximal. `COc1cc[nH]c1/C=C1\C(=O)Nc2ccc([N+](=O)[O-])c(N3CCC(N)CC3)c21`: the IC50 is less than 0.01 µM (mda-mb-435) and less than 0.01 µM (rko). `COc1cc[nH]c1/C=C1\C(=O)Nc2ccc(F)cc21` came in with an IC50 (mda-mb-435) greater than 30 µM. Compound `COc1cc[nH]c1/C=C1\C(=O)Nc2ccc([N+](=O)[O-])c(NC3CCC(O)C3)c21` (stereo unspecified) came in with an IC50 (mda-mb-435) of 1 µM and an IC50 (rko) of 0.339 µM. Turning to `COc1cc[nH]c1/C=C1\C(=O)Nc2ccc([N+](=O)[O-])c(N3CC[C@@H](N)C3)c21`, the 50% inhibitory concentration (IC50) is, setting by setting: (mda-mb-435) less than 0.01 µM; (rko) less than 0.01 µM.

`COc1cc[nH]c1/C=C1\C(=O)Nc2ccc([N+](=O)[O-])c(NC3CCC(N)C3)c21` (stereo unspecified) registered an IC50 (mda-mb-435) of 0.061 µM and an IC50 (rko) of less than 0.015 µM. In turn, `COc1cc[nH]c1/C=C1\C(=O)Nc2ccc([N+](=O)[O-])c(-n3ccnc3)c21` returned a 50% inhibitory concentration (IC50) (mda-mb-435) greater than 30 µM. As to `COc1cc[nH]c1/C=C1\C(=O)Nc2ccc([N+](=O)[O-])c(N3CCC(O)CC3)c21`, the IC50 (rko) is less than 0.01 µM.
